One data set has as its system CAY 1104. The experiment in a line: Minimum growth inhibition concentration (antimicrobial activity). The data set is classed as cell-based. Particulars: Enterobacter Faecalis CAY 1104. The source says:
(§1) The antimicrobial activity of the 7-[2-(2-amino-4-thiazolyl)-2-(hydroxyimino)acetamido]-3-(1,3-dithiolan-2-yl)-3-cephem-4-carboxylic acid which is such that A of the compounds of the general formula is the hydrogen atom (Compound of Example 1) is shown in Table 1.
(§2) (Minimum Growth Inhibition Concentration, γ/ml)

The next data set relates to Escherichia coli 0-1. The description is as above. Particulars: 01. Type of data set: cell-based.
Source text: as §1, §2

The test system of data set [1] is Klebsiella pneumoniae ATCC 10031. The description is as above. Type of data set: cell-based. Conditions: ATCC10031.
Source text: as §1, §2

Data set [2] deals with Staphylococcus aureus FDA 209P JC-1. Described as above. The data set is classed as cell-based. Conditions: FDA209P.
Source text: as §1, §2

In data set [3] the test system is Staphylococcus epidermidis IID 866. Described as above. Type of data set: cell-based. Conditions: IID866.
Source text: as §1, §2

The nature of data set [4]: Absorption rate from the digestive tract (urinary and biliary recovery after oral administration). The data set is classed as in vivo. Conditions: rat, 50 mg/kg, bioassay. Here is the method:
Further, the absorption rate of the compound of the general formula (I) wherein A is the 1-acetoxyethyl group (Compound of Example 2) from the digestive tract is shown as follows together with the testing method therefor.
An ether-anesthetized rat was fixed with the belly upside and a polyethylene tube was inserted into the bile-duct. The urine was collected from the same rat. After the test compound was orally administered at 50 mg/kg, urine and bile samples were collected within 0-6 hours and also within 6-24 hours. The amounts recovered in the urine and the bile within 24 hours were determined by measuring the test compound concentrations in the urine and the bile by a bioassay method using the standard solution of the test compound prepared with M/15 phosphate buffer.

Values after ≈ are worked out from the molar mass of the structure shown. Where two headings read alike, the source gives them in different places.

As usually defined, the MIC is the lowest concentration found to suppress growth. On to `Nc1nc(/C(=N/O)C(=O)NC2C(=O)N3C(C(=O)O)=C(C4SCCS4)CS[C@H]23)cs1` (some centres unmarked) [Example 1, (Z)-7-[2-(2-amino-4-thiazolyl)-2-(hydroxyimino)acetamido]-3-(1,3-dithiolan-2-yl)3-cephem-4-carboxylic acid], for which the MIC in the data set on CAY 1104 is 3.13 µg/mL (≈ 6.61 µM); in the data set on Escherichia coli 0-1, 0.39 µg/mL (≈ 0.824 µM); in data set [1], 0.78 µg/mL (≈ 1.65 µM); in data set [2], 0.39 µg/mL (≈ 0.824 µM); in data set [3] it was 0.39 µg/mL (≈ 0.824 µM).
As to `CC(=O)OC(C)OC(=O)C1=C(C2SCCS2)CS[C@@H]2C(NC(=O)/C(=N\O)c3csc(N)n3)C(=O)N12` (some centres unmarked) [Example 2, 1-acetoxyethyl (Z)-7-[2-(2-amino-4-thiazolyl)-2-(hydroxyimino)acetamido]-3-(1,3-dithiolan-2-yl)-3-cephem-4-carboxylate], the dose excreted at 24 h amounted to 8.5% in data set [4] (bile, read-out: Recovery Rate (%) within 24 hours In the Bile); 14.1% in data set [4] (urine, read-out: Recovery Rate (%) within 24 hours In the Urine); 22.6% in data set [4] (urine and bile, urine + bile, read-out: Recovery Rate (%) within 24 hours Total).

The values are drawn from patent publication US5081116A, “Cephalosporin derivatives” (Yamanouchi Pharmaceutical Co., Ltd., priority 1989, dated 1992).
